In the NIST ThermoML archive (doi:10.1016/j.tca.2017.02.014):
Where “and” joins values, the source holds several entries; their conditions need not be identical. Equal entries are not always repeated. ± gives the expanded uncertainty stated by the source.

How the values were obtained:
[1] = Crystal; DTA
[2] = Molar enthalpy of transition or fusion; conditions: Crystal; DSC

Normal melting temperature [1]	Molar enthalpy of transition or fusion [2]	Compound
128.00 ± 0.5 °C and 127.50 ± 0.5 °C	5.88 ± 0.263 kcal/mol	NC(=O)c1cccnc1 [3-pyridinecarboxamide]
94.20 ± 0.5 °C and 93.50 ± 0.5 °C	7.29 ± 0.287 kcal/mol	CC(C(=O)O)c1cccc(C(=O)c2ccccc2)c1 (centres undefined) [ketoprofen]
